Structures can show the parent of a compound that is named as a salt. Where two headings read alike, the source gives them in different places. A value given as a limit tells only on which side of the number the result lay.

EC50 and selectivity index data for twelve molecules are collected here from PMC11487390, “Design and Synthesis of 1,3-Diarylpyrazoles and Investigation of Their Cytotoxicity and Antiparasitic Profile” (International Journal of Molecular Sciences, 2024).

Series [1] concerns L. infantum MHOM/MA(BE)/67 strain. Briefly: L. infantum intracellular amastigote assay in PMM (Giemsa, 5 days). In kind it is cell-based, Leishmania infantum. How it is done: (§1) The MRC-5SV2 human lung fibroblast cell line was cultured in MEM + Earle’s salts-medium, supplemented with 2 mM L-glutamine, 16.5 mM NaHCO3, and 5% inactivated fetal calf serum. For evaluating the antileishmanial activity, the L. infantum MHOM/MA(BE)/67 strain was used. This strain was maintained in a Golden hamster (Mesocricetus auratus). Amastigotes were collected from the spleen of an infected donor hamster using differential centrifugation. Primary peritoneal mouse macrophages were used as host cells and were collected 2 days after peritoneal stimulation with a 2% potato starch suspension. For the intracellular T. cruzi assays, the Tulahuen CL2 strain was used that expresses β-galactosidase. The strain was maintained in MRC-5SV2 cells in MEM medium. The T. b. brucei Squib 427 strain or T. b. rhodesiense STIB-900 strain was used for screening against the extracellular African trypanosomes. The strains were maintained in Hirumi’s Modified Iscove’s medium-9 (HMI-9), supplemented with 10% inactivated fetal calf serum. All cultures and assays were performed at 37 °C with 5% CO2.
(§2) Compound stock solutions were prepared in 100% DMSO at 20 mM. The compounds were serially pre-diluted by robotic plate production (4-fold) in DMSO followed by a further (intermediate) dilution in demineralized water to assure a final in-test DMSO concentration of <1%. Identical test plates containing 10 µL of the different concentrations of each compound were produced for the different assays. For the cytotoxicity assays, 5 concentrations per compound were tested (64–16–4–1–0.25 µM). For the parasitic assays, 10 concentrations per compound were tested, ranging from 64 µM to 0.2 nM.
(§3) Primary peritoneal mouse macrophages (PMMs) were prepared in RPMI-1640 medium, supplemented with 2 mM L-glutamine, 16.5 mM NaHCO3, and 5% inactivated fetal calf serum. The macrophages are infected after 48 h with spleen-derived L. infantum amastigotes (3 × 10^4 PMM + 4.5 × 10^5 parasites/well). The compounds were added after 2 h of infection. After 5 days incubation, parasite burdens (mean number of amastigotes/macrophage) were assessed microscopically after staining with a 10% Giemsa solution and EC50 values were calculated.

A short description of series [2]: Cytotoxicity assay, MRC-5SV2 cells, resazurin, 3 days. Type of series: cell-based. The note with it: human, MRC-5SV2 human lung fibroblast cells, MRC-5 cells, highest concentration 64 µM. How it is done:
(§4) The series of final products (13–69) was investigated in vitro on the human fetal lung fibroblast cell line MRC-5 (Table 1) to assess cytotoxicity toward normal (i.e., non-malignant) human cells. […] As explained earlier, these are important pathogens for humans or cattle (T. b. brucei) and a persistent need for new therapeutics exists for these parasites. As a part of the antiparasitic tests, cytotoxicity against primary mouse macrophages (PMMs) was also evaluated. These murine cells serve as host cells for parasites in the L. infantum assay. Therefore, the murine macrophage assay not only offers additional cytotoxicological insight but is also essential to interpreting the readout of the L. infantum assay.
as §1, §2
Assays were performed in sterile 96-well microtiter plates, each well containing 10 µL of the watery compound dilutions together with 190 µL of MRC-5SV2 inoculum (1.5 × 10^5 cells/mL). Cell growth was compared to untreated control wells (100% cell growth) and medium-control wells (0% cell growth). After 3 days incubation, MRC-5 viability was assessed fluorimetrically after addition of 50 μL resazurin per well (final concentration of 10 µg mL^−1). After 4 h at 37 °C, fluorescence was measured (λex 550 nm, λem 590 nm). The results were expressed as % reduction in cell growth/viability compared to positive (100% growth–0% inhibition) and negative (0% growth–100% inhibition) control wells from which EC50 values (50% effective concentrations) were derived using an excel macro that calculates the interpolation of the concentrations corresponding to the flanking points, just above and just below 50% inhibition.
Background: Resazurin is reduced to fluorescent resorufin, in cell work by metabolically active cells.

For series [3], the system named is primary mouse macrophages (PMMs). Briefly: Cytotoxicity against primary peritoneal mouse macrophages (PMM). Type of series: cell-based. The note with it: Macrophage. How it is done:
as §4, §1, §3

For series [4], the system named is T. b. brucei Squib 427 strain. Briefly: T. b. brucei growth assay (resazurin, 3 days). Type of series: cell-based, Trypanosoma brucei brucei. How it is done:
as §1, §2
(§5) Parasite suspensions (1.5 × 10^4 T. b. brucei/well or 4 × 10^3 T. b. rhodesiense/well) in HMI-9 medium were exposed in a total volume of 200 µL to 10 µL of the compound dilutions Parasite growth was assessed fluorimetrically after 3 days of incubation by the addition of 50 µL resazurin per well. After 6 h (T. b. rhodesiense) or 24 h (T. b. brucei) at 37 °C, fluorescence was measured (λex 550 nm, λem 590 nm), from which viability and EC50 values could be determined.

Series [5] relates to Trypanosoma cruzi Tulahuen CL2 strain. Briefly: Intracellular T. cruzi assay in MRC-5 cells (β-galactosidase/CPRG, 7 days). Type of series: cell-based. The note with it: intracellular in MRC-5 cells. On the procedure: as §1, §2
MRC-5 cells were infected in 96-well plates using a harvested T. cruzi inoculum (4 × 10^3 MRC-5 cells/well + 4 × 10^4 parasites/well) and exposed to 10 µL of the compound dilutions (200 µL/well total volume). Parasite growth determined after 7 days of incubation and compared to untreated infected controls following the addition of the substrate CPRG (chlorophenolred ß-D-galactopyranoside): 50 µL/well of a stock solution containing 15.2 mg CPRG + 250 µL Nonidet in 100 mL PBS. The absorbance was measured spectrophotometrically at 540 nm after 4 h incubation at 37 °C and EC50 values were calculated.

Series [6] deals with T. b. rhodesiense STIB-900 strain. Briefly: T. b. rhodesiense growth assay (resazurin, 3 days). In kind it is cell-based, Trypanosoma brucei rhodesiense. How it is done: as §1, §2, §5
Where [7] appears, read: Leishmania infantum, 120 h, amastigotes in PMM, 5 days, read-out: L. inf. (EC50).
Where [8] appears, read: Trypanosoma brucei, 72 h, 3 days, read-out: T. b. bruc. (EC50).
The mark [9] stands for this setting: Trypanosoma cruzi, TULAHUEN, MRC5, 168 h.
Where [10] appears, read: Trypanosoma brucei, RHODESIENSE, 72 h, 3 days, read-out: T. b. rhod. (EC50).
Setting [11] is: Leishmania infantum, 120 h, read-out: L. inf. (EC50, µM), amastigotes in PMM, 5 days.
[12] abbreviates: Trypanosoma brucei, 72 h, read-out: T. b. bruc. (EC50, µM), 3 days.
Setting [13] is: Trypanosoma brucei, RHODESIENSE, 72 h, read-out: T. b. rhod. (EC50, µM), 3 days.

What is called EC50 is the concentration needed to bring the measured effect to its halfway point. Turning to `c1ccc(NCc2cn(-c3ccccc3)nc2-c2ccc3c(c2)OCCO3)cc1` [Compound 13, N-((3-(2,3-dihydrobenzo[b][1,4]dioxin-6-yl)-1-phenyl-1H-pyrazol-4-yl)methyl)aniline], the EC50 in series [1] (setting [7]) was 10.8 µM; in series [3] it was > 64 µM; in series [4] (setting [8]), 31.4 µM; in series [5] (setting [9]), 2.23 µM; in series [6] (setting [10]), 7.32 µM. Moreover, the EC50 at 3 days in series [2] is > 64 µM.

Consider `Fc1ccc(NCc2cn(-c3ccccc3)nc2-c2ccc3c(c2)OCCO3)cc1` [Compound 14, N-((3-(2,3-dihydrobenzo[b][1,4]dioxin-6-yl)-1-phenyl-1H-pyrazol-4-yl)methyl)-4-fluoroaniline], for which the 50% effective concentration (EC50) is < 10 µM in series [1] (setting [7]); 6.96 µM in series [1] (amastigotes in PMM, 5 days, read-out: L. inf. (EC50)); > 64 µM in series [3]; 8.18 µM in series [4] (3 days, read-out: T. b. bruc. (EC50)); < 10 µM in series [4] (setting [8]); 6.35 µM in series [6] (3 days, read-out: T. b. rhod. (EC50)). Besides, the half-maximal effective concentration (EC50) in series [6] (setting [10]) was < 10 µM. Also, in series [2], the EC50 at 3 days was > 64 µM.

Turning to `CNC(=O)c1ccc(NCc2cn(-c3ccccc3)nc2-c2ccc3c(c2)OCCO3)cn1` [Compound 18, 5-(((3-(2,3-dihydrobenzo[b][1,4]dioxin-6-yl)-1-phenyl-1H-pyrazol-4-yl)methyl)amino)-N-methylpicolinamide], the EC50 in series [1] (setting [7]) was 9.19 µM; in series [3] it was 32 µM; in series [4] (setting [8]), > 64 µM; in series [5] (setting [9]), > 64 µM; in series [6] (setting [10]) it was > 64 µM. Besides, the concentration giving a half-maximal response (EC50) at 3 days in series [2] is 49.9 µM.

As to `c1ccc(-n2cc(CNCCc3ccncc3)c(-c3ccc4c(c3)OCCO4)n2)cc1` [Compound 19, N-((3-(2,3-dihydrobenzo[b][1,4]dioxin-6-yl)-1-phenyl-1H-pyrazol-4-yl)methyl)-2-(pyridin-4-yl)ethan-1-amine hydrochloride], the EC50 amounted to 20.3 µM in series [1] (setting [11]); 32 µM in series [3]; 6.27 µM in series [4] (setting [12]); 7.46 µM in series [5] (setting [9]); 1.72 µM in series [6] (setting [13]). For the same molecule, the EC50 at 3 days in series [2] is 20.2 µM.

`c1ccc(-n2cc(CNCCc3ccccn3)c(-c3ccc4c(c3)OCCO4)n2)cc1` [Compound 21, N-((3-(2,3-dihydrobenzo[b][1,4]dioxin-6-yl)-1-phenyl-1H-pyrazol-4-yl)methyl)-2-(pyridin-2-yl)ethan-1-amine hydrochloride]: the EC50 in series [1] (setting [11]) is < 10 µM; in series [1] (read-out: L. inf. (EC50), amastigotes in PMM, 5 days) it was 5.06 µM; in series [3], 32 µM; in series [5] (setting [9]), < 10 µM; in series [5], 7.31 µM. A half-maximal effect in series [2] (EC50 at 3 days) was put at 29.1 µM.

Consider `CNC(=O)c1cc(Oc2ccc(NCc3cn(-c4ccccc4)nc3-c3ccc4c(c3)OCCO4)cc2)ccn1` [Compound 22, 4-(4-(((3-(2,3-dihydrobenzo[b][1,4]dioxin-6-yl)-1-phenyl-1H-pyrazol-4-yl)methyl)amino)phenoxy)-N-methylpicolinamide], for which the EC50 in series [1] (setting [7]) is > 64 µM; in series [3] it was > 64 µM; in series [4] (setting [8]) it was 2.22 µM; in series [5] (setting [9]), > 64 µM; in series [6] (setting [10]), 0.74 µM. Also, in series [2], the EC50 at 3 days was > 64 µM. The selectivity index in series [6] (T. b. rhodesiense versus cytotoxicity) is listed as 86.

As to `c1ccc(-n2cc(CNCCN3CCOCC3)c(-c3ccc4c(c3)OCCO4)n2)cc1` [Compound 28, N-((3-(2,3-dihydrobenzo[b][1,4]dioxin-6-yl)-1-phenyl-1H-pyrazol-4-yl)methyl)-2-morpholinoethan-1-amine dihydrochloride], the EC50 turned out to be 32.5 µM in series [1] (setting [11]); 32 µM in series [3]; 7.08 µM in series [4] (setting [12]); 30.3 µM in series [5] (setting [9]); 6.27 µM in series [6] (setting [13]). For the same molecule, the EC50 at 3 days in series [2] amounted to 29.4 µM.

With `O=C(Nc1ccc(F)cc1)c1cn(-c2ccccc2)nc1-c1ccc2c(c1)OCCO2` [Compound 31, 3-(2,3-dihydrobenzo[b][1,4]dioxin-6-yl)-N-(4-fluorophenyl)-1-phenyl-1H-pyrazole-4-carboxamide], the EC50 is > 64 µM in series [1] (setting [7]); > 64 µM in series [3]; 6.73 µM in series [4] (setting [8]); 7.38 µM in series [5] (setting [9]); 3.12 µM in series [6] (setting [10]). Also, in series [2], the EC50 at 3 days is > 64 µM.

Take `O=C(NCc1ccccc1)c1cn(-c2ccccc2)nc1-c1ccc2c(c1)OCCO2` [Compound 32, N-benzyl-3-(2,3-dihydrobenzo[b][1,4]dioxin-6-yl)-1-phenyl-1H-pyrazole-4-carboxamide]: the EC50 in series [1] (setting [7]) was 12.7 µM; in series [3], > 64 µM; in series [4] (setting [8]) it was 24.1 µM; in series [5] (setting [9]), 6.79 µM; in series [6] (setting [10]), 4.86 µM. For the same molecule, the half-maximal effective concentration (EC50) at 3 days in series [2] was > 64 µM.

In the case of `COc1ccc(-c2nn(-c3ccccc3)cc2CN2CCOCC2)cc1` [Compound 66, 4-((3-(4-methoxyphenyl)-1-phenyl-1H-pyrazol-4-yl)methyl)morpholine hydrochloride], the EC50 was found to be 34.6 µM in series [1] (setting [11]), 27.8 µM in series [4] (setting [12]), 22.4 µM in series [5] (setting [9]) and 20.5 µM in series [6] (setting [13]). Besides, the EC50 at 3 days in series [2] was > 64 µM.

As to `COc1ccc(-c2nn(-c3ccccc3)cc2COCc2ccc(F)cc2)cc1` [Compound 68, 4-(((4-fluorobenzyl)oxy)methyl)-3-(4-methoxyphenyl)-1-phenyl-1H-pyrazole], the EC50 in series [1] (setting [7]) worked out at 36.8 µM; in series [4] (setting [8]) it was 29.6 µM; in series [5] (setting [9]), 5.33 µM; in series [6] (setting [10]) it was 11.4 µM. Further, in series [2], the concentration giving a half-maximal response (EC50) at 3 days was > 64 µM.

`c1ccc(-n2cc(CNCCN3CCCC3)c(-c3ccc4c(c3)OCCO4)n2)nc1` [Compound 69, N-((3-(2,3-dihydrobenzo[b][1,4]dioxin-6-yl)-1-(pyridin-2-yl)-1H-pyrazol-4-yl)methyl)-2-(pyrrolidin-1-yl)ethan-1-amine dihydrochloride]: the EC50 in series [1] (setting [11]) was > 64 µM; in series [4] (setting [12]) it was 22.7 µM; in series [5] (setting [9]) it was > 64 µM; in series [6] (setting [13]), 24.8 µM. Besides, the concentration giving a half-maximal response (EC50) at 3 days in series [2] was > 64 µM.
